Experimental data: patent US20100144773A1 (priority 2007, published 2010)
Read-outs that look alike come from different tables or passages of the source.

Tested on: male Wistar rats injected with beta-amyloid peptide 25-35 into NBM
Details: 1 mg/kg once a day for 7 days from day 16 after amyloid injection, retention trial 24 h after acquisition, cut-off 180 s, n=8, control 48 ± 11
Experimental: Beta-amyloid was administered bilaterally into NBM of male Wistar rats in dose of 2 μg per each side. […] Control rats received saline intranasally. On day next to the last day of the treatment, passive avoidance performance in rats was tested for two consecutive days. A two-compartment, step-through, passive avoidance apparatus consisting of illuminated (25×40×25 cm) and dark (25×40×25 cm) compartments attached to an electrified grid floor and separated by a guillotine door (8×8 cm) was used. In the acquisition trial, the rat was placed in the illuminated compartment in a position its tail directed to the closed door for 2 min to habituate to the apparatus. The guillotine door was opened and time to enter to dark compartment was recorded. When the rat entered to dark compartment completely (four foots in dark compartment), the guillotine door was closed and the rat was delivered an electrical shock of 0.8 mA for 3 sec through the grid floor. After the shock, the rat was immediately placed in home cage. In the retention trial, conducted 24 h after the acquisition trial, the rat was placed in the illuminated compartment and the retention latency to enter into the dark compartment was recorded until 180 s had elapsed. […] Data are presented as retention latency mean±SD (n=8).

Row | SMILES | Latency (retention latency to enter the dark compartment, mean±SD) (intranasally) [s] | Latency (retention latency to enter the dark compartment, mean±SD) (intraperitoneally) [s]
1 | C[N+](C)(C)CCO.O=C([O-])CCC(=O)O [Compound of formula (I)] | 103 ± 18 | 55 ± 18
2 | C[N+](C)(C)CCO.O=C([O-])CCC(=O)[O-].[Na+] [Compound of formula (III)] | 87 ± 19 | 53 ± 28
3 | C[N+](C)(C)CCO.O=C([O-])CCC(=O)[O-].[K+] [Compound of formula (IV)] | 65 ± 16 | 49 ± 17
